One assay relates to HDAC isoforms. As to conditions: cited from earlier work; for isoform selectivity: prior work.
The test system of assay [1] is HeLa cell lysates as the source of all HDAC proteins. Put plainly: Global HDAC inhibition with HeLa cell lysates. The format is biochemical. Conditions: mean and standard error of at least three independent trials.
The target in another assay is T1, HDAC6 (Homo sapiens, UniProt Q9UBN7).
T1 sequence (Q9UBN7 1-1215): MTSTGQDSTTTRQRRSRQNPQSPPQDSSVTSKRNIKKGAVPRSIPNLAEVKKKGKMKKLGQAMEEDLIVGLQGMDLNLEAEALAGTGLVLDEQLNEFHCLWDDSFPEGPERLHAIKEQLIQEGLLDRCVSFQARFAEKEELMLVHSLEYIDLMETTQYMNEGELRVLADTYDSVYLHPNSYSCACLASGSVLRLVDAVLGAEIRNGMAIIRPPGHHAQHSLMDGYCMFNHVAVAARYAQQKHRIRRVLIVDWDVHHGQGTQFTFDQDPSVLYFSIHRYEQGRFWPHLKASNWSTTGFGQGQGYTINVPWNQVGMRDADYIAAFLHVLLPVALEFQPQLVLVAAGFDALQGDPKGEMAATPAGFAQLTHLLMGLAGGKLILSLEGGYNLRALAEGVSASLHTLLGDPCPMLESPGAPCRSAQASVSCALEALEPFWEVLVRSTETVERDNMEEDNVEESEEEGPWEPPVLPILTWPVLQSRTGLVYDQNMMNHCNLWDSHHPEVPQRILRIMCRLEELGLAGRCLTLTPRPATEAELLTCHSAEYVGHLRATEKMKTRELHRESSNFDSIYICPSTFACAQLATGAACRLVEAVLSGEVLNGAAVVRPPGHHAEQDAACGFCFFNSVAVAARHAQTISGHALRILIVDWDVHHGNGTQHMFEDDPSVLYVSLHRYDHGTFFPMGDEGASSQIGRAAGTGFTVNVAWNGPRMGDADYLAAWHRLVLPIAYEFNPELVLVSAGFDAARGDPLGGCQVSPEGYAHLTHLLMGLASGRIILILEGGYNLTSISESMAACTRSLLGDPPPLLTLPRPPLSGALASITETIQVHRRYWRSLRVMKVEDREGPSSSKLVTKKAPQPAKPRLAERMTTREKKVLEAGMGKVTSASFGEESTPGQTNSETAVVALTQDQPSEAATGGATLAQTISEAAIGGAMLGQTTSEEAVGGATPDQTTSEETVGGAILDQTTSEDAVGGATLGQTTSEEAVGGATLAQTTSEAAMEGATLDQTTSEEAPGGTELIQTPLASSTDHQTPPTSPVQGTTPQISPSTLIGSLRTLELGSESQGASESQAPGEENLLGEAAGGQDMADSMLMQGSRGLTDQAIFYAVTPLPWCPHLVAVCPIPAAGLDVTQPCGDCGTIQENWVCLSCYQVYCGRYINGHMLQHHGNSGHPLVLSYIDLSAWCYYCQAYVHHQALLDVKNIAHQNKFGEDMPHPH
Kind of assay: ELISA-based HDAC activity assay, HDAC6. The format is biochemical. As to conditions: from IC50 values (Tables 2 and S6). A general note: ELISA stands for enzyme-linked immunosorbent assay.

For assay [2], the system named is HDAC6 (substrate acetyl-α-tubulin, AcTub). Put plainly: In cellulo selectivity, western blot of acetyl-α-tubulin in U937 cells. The format is cell-based. As to conditions: SAHA 5 µM, 1e 10–40 µM, compared to DMSO control. A general note: A western blot detects proteins with antibodies after separation by electrophoresis.
The subject of assay [3] is Class I HDAC (HDAC1, 2, and 3) (substrate acetyl-histone 3, AcH3). Put plainly: In cellulo selectivity, western blot of acetyl-histone H3 in U937 cells. The format is cell-based. As to conditions: SAHA 5 µM, 1e 10–40 µM, compared to DMSO control.

SMILES strings stand for the structures.

For orientation: IC50 means the concentration needed to halve the response being measured. As to `CCCCCCC(CCCCCC(=O)Nc1ccccc1)C(=O)NO` (stereo not shown) [C2-hexyl SAHA], the “selectivity for HDAC6 and 8 over HDAC1, 2, and 3” value with HDAC isoforms (previously reported) was 49- to 300 fold. The isoform selectivity entry in the assay with HDAC isoforms was “dual HDAC6/8 selectivity”. The IC50 with HDAC isoforms (read-out: IC50 values against HDAC6 and 8, previously reported) was 600 to 2000 nM.
Regarding `CCC(CCCCC(=O)Nc1ccccc1)CC(=O)NO` (stereo not shown) [C3-ethyl SAHA], the isoform selectivity entry in the assay on HDAC isoforms was “HDAC6 selectivity”.
Regarding `CCCCC(CCCCC(=O)NO)CC(=O)Nc1ccccc1` (stereo not shown) [C6-butyl SAHA], the isoform selectivity entry in the assay on HDAC isoforms was “inhibited HDAC1 and 6 over HDAC3”.
`CC(CCCC(=O)NO)CCC(=O)Nc1ccccc1` (stereo not shown) [Compound 1a, C5-methyl SAHA]: in assay [1], the IC50 was determined as 100 ± 10 nM.
`CCCCC(CCCC(=O)NO)CCC(=O)Nc1ccccc1` (stereo not shown) [Compound 1b, C5-n-butyl SAHA]: the “selectivity for HDAC6 and HDAC8 over HDAC1, 2, and 3” value at HDAC6 is recorded as 3- to 5 fold.
On the same count and under the same terms, under `CCCCCCC(CCCC(=O)NO)CCC(=O)Nc1ccccc1` (stereo not shown) [Compound 1c, C5-n-hexyl SAHA] stands 5- to 7 fold.
In the case of `O=C(CCCC(CCC(=O)Nc1ccccc1)Cc1ccccc1)NO` (stereo not shown) [Compound 1e, C5-benzyl SAHA], in assay [2], the “levels of acetyl-α-tubulin (AcTub)” value is “dose dependent selective increase”. In addition, in assay [3], the “levels of acetyl-histone H3 (AcH3)” value is on record as “increased levels”.
